Measurements from patent US6441049B2, “Method of treating neurodegenerative disorders via inhibition of amyloid beta peptide binding” (Ortho-McNeil Pharmaceutical, Inc., priority 1998, dated 2002).
Where two headings read alike, the source gives them in different places. Bridge positions count the residues as written; N and C are the ends.

Legend:
[1] = tested on: acetylcholine release from guinea pig hippocampus synaptosomes; test: K+-evoked 3H-acetylcholine release from synaptosomes, effect of Aβs; format: cell-based; conditions: for IC50: read-out: ACh Release (IC50)
Protocol: Synaptosomes from guinea pig hippocampus were incubated with 0.1 μM ^3H-choline and then subjected to repeated washes to remove unincorporated ^3H-choline. The synaptosomes were treated with 65 mM K^+ for 30 seconds to elicit 3H-acetylcholine release.

Aβ aggregation = molecular target: T1, Aβ aggregation (Homo sapiens, UniProt P05067); test: Aβ aggregation assay on Synthaloid plates with labelled Aβ1-40; format: biochemical; conditions: for % Inh Agg. (conc μM) / inhibition at 10 µM: 10 μM
T1 construct: 100 nM of fluo-Aβ1-40 in 100 μl of each well of the 96-well Synthaloid plate; purchased Amersham Pharmacia Biotech (125I-Aβ1-40); Advanced Bioconcepts (fluo-Aβ1-40)
Protocol: Aβs are known to form aggregates leading to the formation of amyloid plaques that are characteristic of Alzheimer's disease. […] We have validated this aggregation assay using both ^125I-Aβ1-40 and fluo-Aβ1-40 in a buffer containing 50 mM HEPES, pH 7.4, 0.1% BSA, 10% FCS and protease inhibitors. About 500 pM of ^125I-Aβ1-40 or 100 nM of fluo-Aβ1-40 in 100 μl of each well of the 96-well Synthaloid plate was allowed to incubate for 2.5 hr at room temperature in the presence or absence of inhibitors. At the end of the incubation, unbound protein in the wells was removed by three washes using the above buffer. The amount of bound protein which represented Aβ aggregation was measured either by scintillation counting or fluorescence measurements.

[2] = molecular target: 206-216 stretch of the human α7 nAChR (Homo sapiens, UniProt P36544); conditions: inhibitors 1 uM to 10 uM
Protocol: A 2-5 ug quantity of the 11 amino acid peptide comprised of the 206-216 stretch of the α7 nAChR (N-Ac, C(O)NH2) are added to a 96-well microtiter plate in 50 mL 10 mM HEPES, pH 7.4, or any buffer 50 ul. ^125I-β-amyloid1-40 (2000 Ci/mmol, 50 pM) was added to the wells in the presence and absence of inhibitors (1 uM to 10 uM) dissolved in 1 uL of 30% or 100% DMSO. Unbound ligands were removed and bound radioactivity was measured using a Microbeta liquid scintillation counter.

[3] = tested on: Aβ1-42 mediated inhibition of ACh release in rat cortical synaptosomes; test: Amelioration of the Aβ1-42 mediated inhibition of ACh release in rat cortical synaptosomes; format: cell-based

T1 sequence (P05067 672-711 limits assumed): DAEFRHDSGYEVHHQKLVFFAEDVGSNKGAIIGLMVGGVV

| Compound | % ACh Release at 10 μM [1] [%] | % Inh Agg. (conc μM) (Aβ aggregation) | % α7 nAChR 206-216 Binding ([2]; 125I-β-amyloid1-40 50 pM) [%] | other results |
| --- | --- | --- | --- | --- |
| CCCN(CCC)C1Cc2c(OCC=C(C)C)ccc(O)c2CC1C (racemic) [Compound 44] | 0 | 50-90 (10) % | 23 | – |
| COc1ccc(OC)c2c1C[C@@H](N1CCOCC1)[C@@H](C)C2 (relative stereo) [Compound 23, 5,8-Dimethoxy-cis-2-(1-morpholinyl)-3-methyl-1,2,3,4-tetrahydronaphthalene] | – | – | 54 | – |
| COc1ccc(OC)c2c1C[C@H](C)[C@H](Nc1ccc(OCCN3CCCCC3)cc1)C2 (relative stereo) [Compound 60, 5,8-Dimethoxy-cis-2-[N-(4-(2-(1-piperidinyl)ethoxy)phenyl)]amino-3-methyl-1,2,3,4-tetrahydronaphthalene] | 24 | – | 0 | % Inh Agg. (result in words) (Aβ aggregation; concentration not given): very active |
| CCCN(CCC)C1Cc2c(OC)ccc(OC)c2CC1C (single isomer, unassigned) [Compound 17] | 63 | >90 (10) % | – | IC50 [1]: 1 µM |
| CCCN(CCC)C1Cc2c(OC)ccc(OC)c2CC1C (single isomer, unassigned) [Compound 18] | 70 | 50-90 (10) % | – | IC50 [1]: 10 µM |
| CCCNC1Cc2c(OC)ccc(OC)c2CC1C (centres unmarked) [Compound 7, 5,8-Dimethoxy-2-N-propylamino-3-methyl-1,2,3,4-tetrahydronaphthalene] | – | – | – | inhibition at 100 µM (Aβ aggregation; 100 μM, read-out: % Inh Agg. (conc μM)): 50% |
| CCCN(CCC)C1Cc2c(OC)ccc(OC)c2CC1C (stereo not drawn) [Compound 8, 5,8-Dimethoxy-trans-2-di(N-propylamino)-3-methyl-1,2,3,4-tetrahydronaphthalene] | – | – | – | IC50 ([1]; Cavia porcellus): 0.7 µM; inhibition at 10 µM (Aβ aggregation; read-out: % Inh Agg. (conc μM)): 50 to 90% |
| CCCN(CCC)C1Cc2c(O)ccc(O)c2CC1C (centres unmarked) [Compound 15] | – | – | – | IC50 [1]: 0.25 µM; inhibition at 10 µM (Aβ aggregation; read-out: % Inh Agg. (conc μM)): 50 to 90%; % α7 nAChR 206-216 Binding ([2]; […]): 85% |
| CCCN(CCC)C1Cc2c(O)ccc(O)c2CC1C (centres unmarked) [Compound 16] | – | 50-90 (10) % | – | IC50 [1]: 10 µM; % α7 nAChR 206-216 Binding ([2]; […]): 44% |
| CC1Cc2c(O)ccc(O)c2CC1N1CCOCC1 (stereo not drawn) [Compound 24, 5,8-Dihydroxy-cis-2-(1-morpholinyl)-3-methyl-1,2,3,4-tetrahydronaphthalene] | – | – | 43 | – |
| CCCN(CCC)C1Cc2c(OC)ccc(O)c2CC1C (stereo not drawn) [Compound 45, 5-Hydroxy-8-methoxy-trans-2-di(N-propylamino)-3-methyl-1,2,3,4-tetrahydronaphthalene] | 78 | – | – | inhibition at 78 µM (Aβ aggregation; 78 μM as printed, read-out: % Inh Agg. (conc μM)): 30 to 50% |
| CCCN(CCC)C1Cc2c(O)ccc(OC)c2CC1C (stereo not drawn) [Compound 46, 5-Methoxy-8-hydroxy-trans-2-di(N-propylamino)-3-methyl-1,2,3,4-tetrahydronaphthalene] | 0 | – | – | inhibition at 10 µM (Aβ aggregation; read-out: % Inh Agg. (conc μM)): 50 to 90%; % α7 nAChR 206-216 Binding ([2]; […]): 18% |
| COC(=O)[C@H](C)NC1Cc2c(OC)ccc(OC)c2CC1C (stereo partly drawn) [Compound 48, 5,8-Dimethoxy-2-[N-(L-alanylmethyl ester)]-3-methyl-1,2,3,4-tetrahydronaphthalene] | 0 | <30 (10) % | 2 | – |
| CCCN(CCC)C1Cc2c(OC(=O)C(C)(C)C)ccc(O)c2CC1C (centres unmarked) [Compound 51] | 54 | 30-50 (10) % | 0 | – |
| CCCN(C)C1Cc2c(OC)ccc(OC)c2CC1C (centres unmarked) [Compound 52] | 0 | – | – | inhibition at 10 µM (Aβ aggregation; read-out: % Inh Agg. (conc μM)): 60%; % α7 nAChR 206-216 Binding ([2]; […]): 0% |
| CCCN(C)C1Cc2c(O)ccc(O)c2CC1C (centres unmarked) [Compound 53] | 18 | – | – | inhibition at 10 µM (Aβ aggregation; read-out: % Inh Agg. (conc μM)): 50 to 90%; % α7 nAChR 206-216 Binding ([2]; […]): 0% |
| CCCN(CCC(C)CCC=C(C)C)C1Cc2c(OC)ccc(OC)c2CC1C (centres unmarked) [Compound 54] | 0 | 50-90 (10) % | 0 | – |
| CCCN(CCC(C)CCC=C(C)C)C1Cc2c(O)ccc(O)c2CC1C (centres unmarked) [Compound 55] | 15 | 50-90 (10) % | 0 | – |
| C#CCN(CCC)C1Cc2c(O)ccc(OP(=O)(c3ccccc3)c3ccccc3)c2CC1C (centres unmarked) [Compound 56] | 8 | <30 (10) % | 78 | – |
| C#CCN(CCC)C1Cc2c(OP(=O)(c3ccccc3)c3ccccc3)ccc(OP(=O)(c3ccccc3)c3ccccc3)c2CC1C (centres unmarked) [Compound 57] | 11 | <30 (10) % | 63 | – |
| CCCN(CCC)C1Cc2c(O)ccc(OP(=O)(c3ccccc3)c3ccccc3)c2CC1C (centres unmarked) [Compound 58] | 18 | <30 (10) % | 42 | – |
| Ac-GIPGKRSERFYECCK-NH2 (cysteine pairing not given here) [human alpha-7 nAChR200-214, peptide stretch of the human alpha-7 nAChR] | – | – | – | Amelioration of the Aβ1-42 Meditated Inhibition of ACh Release in Rat Cortical Synaptosomes (%) ([3]; at 1 μM): 71% at 1 μM; Amelioration of the Aβ1-42 Meditated Inhibition of ACh Release in Rat Cortical Synaptosomes (%) ([3]; at 10 μM): 79% at 10 μM |
| Ac-SERFYECCKEP-NH2 [human alpha-7 nAChR206-216 oxidized (cyclic) CC: Ac-SERFYECC] (disulfide 7-8 (inferred)) [206-216 peptide with oxidized (cyclic) CC] | – | – | – | Amelioration of the Aβ1-42 Meditated Inhibition of ACh Release in Rat Cortical Synaptosomes (%) ([3]; at 1 μM): 82% at 1 μM; Amelioration of the Aβ1-42 Meditated Inhibition of ACh Release in Rat Cortical Synaptosomes (%) ([3]; at 10 μM): 84% at 10 μM |
